Results published in patent US11241437B2, “Heterocyclic compounds, preparation methods and uses thereof” (InventisBio Co., Ltd., priority 2019, dated 2022).
Converted amounts (≈) assume the structure as drawn. Read-outs that look alike come from different tables or passages of the source.

How the values were obtained:
Assay type in all cases: physicochemical
[1] = Interconversion studies of solid forms of Compound 1 (slurry); details: water or MeOH/water (1/4) at RT and 50° C. for 3 days
Experimental: Interconversion Studies: Equal amounts (˜7 mg) of Form I, II and III were mixed together and then suspended in 0.5 mL of different solvents at room temperature or 50° C., respectively. Residual solids were collected by filtration and characterized at appropriate time. Additionally, Form IV (˜12 mg) was slurried in 0.5 ml, water or MeOH/water (1/4) at RT or 50° C. for 3 days. Residual solids were collected by filtration and analyzed by XRPD.

[2] = Stability studies of Form IV of Compound 1 (HPLC and XRPD)
Experimental: Method 1. a representative HPLC method is shown below, which can be used, for example, to analyze the purity, solubility, and stability of Compound 1 herein.
Stability Studies: Appropriate amounts of Form IV were put at 40° C./75% RH, 60° C. and 25±2° C./92.5% RH conditions for 14 days. Then the sample was tested by HPLC and XRPD to determine the chemical and physical stability.

[3] = Solubility of Compound 1 solid forms in bio-relevant media and water
Experimental: Solubility Studies: Solubility of Form IV was tested in three bio-relevant media (Simulated Gastric Fluid (SGF), Fasted State Simulated Intestinal Fluid (FaSSIF), and Fed State Simulated Intestinal Fluid (FeSSIF)) and water. […] Form IV (˜10 mg) was weighed into 2 mL of four media to make suspensions respectively, and about 10 mg of the amorphous starting material was also added into 2 mL of FaSSIF. Then all suspensions were shaken at 37° C. with 200 rpm for up to 24 hours. At 0.5, 2 and 24 hours, about 0.7 mL of each suspension was filtered. The filtrate was analyzed by HPLC and pH meter, and the residual solids were also checked by XRPD at 24 hours.

[4] = Polymorph characterization summary of Compound 1 forms (form stability)
From the text: In the polymorph screening, five XRPD Patterns (FIG. 11) were generated, and four forms were identified including 2 anhydrates and 2 hydrates.

[5] = Dynamic moisture sorption analysis (DVS) of Form IV of Compound 1
Experimental: Method 1. Used for studies with solid state of Compound 1. Moisture sorption/desorption data was collected on a DVS Intrinsic (SMS, UK). The sample was placed into a tared sample chamber and automatically weighed. The sample was dried at 40° C. until the dm/dt was less than 0.002% and cooled to 25° C. Set the instrument parameters as below.

[6] = Mechanical stability (grinding) of Form IV of Compound 1; details: ground for 2 and 5 min
Experimental: Form IV was also tested for mechanical stability. In this case, appropriate amount of Form IV was ground for 2 and 5 min, and then tested by XRPD to check the crystal form.

C=CC(=O)N1C[C@H](C)N(c2nc(=O)n(-c3c(C4CC4)ncnc3C3CC3)c3nc(-c4c(N)cccc4F)c(Cl)cc23)C[C@H]1C [Form IV]
Form after slurry in aqueous systems (XRPD) [1]: remained unchanged
Purity ([2]; 40° C./75% RH, 7 D): 98.21 Area %
Purity ([2]; 40° C./75% RH, 14 D): 98.12 Area %
Physical stability, XRPD ([2]; 40° C./75% RH, 60° C. and 25° C./92.5% RH, 14 days): XRPD remained unchanged
Chemical stability, impurities ([2]; 60° C. for 2 weeks): a new impurity was detected
Purity ([2]; 60° C., 7 D): 97.98 Area %
Purity ([2]; 60° C., 14 D): 97.88 Area %
Purity-initial ([2]; initial, before storage): 98.30 Area %
Solubility ([3]; FaSSIF, 37° C., 0.5 h): 17 µg/mL (≈ 27.6 µM)
Solubility ([3]; FaSSIF, 37° C., 2 h): 16 µg/mL (≈ 26 µM)
Solubility ([3]; FaSSIF, 37° C., 24 h): 21 µg/mL (≈ 34.1 µM)
XRPD-24 h of residual solids ([3]; FaSSIF, 37° C., 24 h): unchanged
Solubility in FaSSIF ([3]; FaSSIF, time point not stated): 20 µg/mL (≈ 32.5 µM)
XRPD-24 h of residual solids ([3]; FeSSIF, 37° C., 24 h): unchanged
solubility at 0.5 h ([3]; FeSSIF, 37 °C, thermodynamic from solid, 0.5 h): 37 µg/mL (≈ 60.2 µM)
solubility at 2 h ([3]; FeSSIF, 37 °C, thermodynamic from solid, 2 h): 37 µg/mL (≈ 60.2 µM)
solubility at 24 h ([3]; FeSSIF, 37 °C, thermodynamic from solid, 24 h): 62 µg/mL (≈ 101 µM)
XRPD-24 h of residual solids ([3]; SGF, 37° C., 24 h): unchanged
solubility at 0.5 h ([3]; SGF, 37 °C, simulated gastric fluid, thermodynamic from solid, 0.5 h): 36 µg/mL (≈ 58.5 µM)
solubility at 2 h ([3]; SGF, 37 °C, simulated gastric fluid, thermodynamic from solid, 2 h): 34 µg/mL (≈ 55.3 µM)
solubility at 24 h ([3]; SGF, 37 °C, simulated gastric fluid, thermodynamic from solid, 24 h): 36 µg/mL (≈ 58.5 µM)
Solubility ([3]; SGF, FeSSIF, water, 37 °C, thermodynamic from solid, media other than FaSSIF (SGF, FeSSIF, water), read-out: Solubility in other media): < 70 µg/mL
XRPD-24 h of residual solids ([3]; Water, 37° C., 24 h): unchanged
solubility at 0.5 h ([3]; water, 37 °C, thermodynamic from solid, 0.5 h): 14 µg/mL (≈ 22.8 µM)
solubility at 2 h ([3]; water, 37 °C, thermodynamic from solid, 2 h): 11 µg/mL (≈ 17.9 µM)
solubility at 24 h ([3]; water, 37 °C, thermodynamic from solid, 24 h): 9 µg/mL (≈ 14.6 µM)
Stability of the solid form [4]: Stable form, slightly
Crystal form after DVS testing [5]: remained unchanged
Hygroscopicity (DVS) ([5]; 25° C.): slightly hygroscopic
Water uptake (DVS) ([5]; at 80% RH, 25° C.): about 1.37%
Crystal form after grinding (XRPD) [6]: no new form was generated
